For the assay, the target named is Prothrombin (Homo sapiens, UniProt P00734). Kind of assay: Inhibition of human alpha-thrombin using chromogenic substrate Pefachrome tPa measured every second for 20 mins by spectrophotometry.
Usually Ki stands for the dissociation constant of the complex between target and ligand, obtained from inhibition or displacement. A lower Ki goes with tighter binding. Molecule `CC(C)CCS(=O)(=O)N1CCC[C@H]1C(=O)NCc1ccc(C(=N)N)cc1` returned a Ki of 2.7 µM. `N=C(N)c1ccc(CNC(=O)[C@@H]2CCCN2C(=O)Cc2ccccc2)cc1` showed a Ki of 0.2 µM. Against the preceding molecule, the Ki is about 14-fold lower. Molecule `CC(C)CC(=O)N1CCC[C@H]1C(=O)NCc1ccc(C(=N)N)cc1` yielded a Ki of 4 µM. This Ki lies about 20-fold higher than the previous one. As for `N=C(N)c1ccc(CNC(=O)[C@@H]2CCCN2S(=O)(=O)Cc2ccccc2)cc1`, the inhibition constant (Ki) stood at 2.5 µM.

The molecule `CCS(=O)(=O)N1CCC[C@H]1C(=O)NCc1ccc(C(=N)N)cc1` came in with a Ki of 117 µM.

Take `CCCS(=O)(=O)N1CCC[C@H]1C(=O)NCc1ccc(C(=N)N)cc1`: the inhibitory constant (Ki) turned out to be 12 µM. This Ki lies about 9.8-fold lower than the previous one. Next, `CC(C)CS(=O)(=O)N1CCC[C@H]1C(=O)NCc1ccc(C(=N)N)cc1`: 3.4 µM.

The record behind these values is ChEMBL document CHEMBL4477238, “Ligand binding cooperativity: Bioisosteric replacement of CO with SO2 among thrombin inhibitors” (Bioorg Med Chem Lett, 2016).
